In patent publication US11760758B2 (The Trustees of Columbia University in the City of New York, priority 2018, dated 2023):
Like-named read-outs stand apart in the source and are kept apart here.

Assays:
[1] = target: T1, human MOR (Homo sapiens, UniProt P35372); test: BRET functional assay for G protein activation at hMOR; assay type: cell-based; conditions: for Agonist activity at hMOR (in words): compared to DAMGO
T1 construct: host or cells: HEK-293T

[2] = target: T1, human MOR; conditions: Kruegel, et al. 2016; cited from earlier work
[3] = target: T2, mouse MOR (Mus musculus, UniProt P42866); test: Radioligand competition binding ([125I]BNtxA), CHO membranes, MOR; conditions: for Ki: mean +/- SE, n = 3, CHO transfected with mouse opioid receptors
[4] = target: T3, mouse KOR (Mus musculus, UniProt P33534); test: Radioligand competition binding ([125I]BNtxA), CHO membranes, KOR; conditions: for Ki: mean +/- SE, n = 3, CHO transfected with mouse opioid receptors
T3 construct: expressed in transfected cells; membranes

[5] = target: T4, mouse DOR (Mus musculus, UniProt P32300); test: Radioligand competition binding ([125I]BNtxA), CHO membranes, DOR; conditions: for Ki: mean +/- SE, n = 3, CHO transfected with mouse opioid receptors
T4 construct: expressed in transfected cells; membranes

[6] = target: T2, mouse MOR; test: cAMP sensor CAMYEL functional assay at mMOR; assay type: cell-based; parameters: host or cells: HEK-293T; conditions: for Agonist activity at mMOR (in words): mMOR CAMYEL assay
[7] = EC50 (nM), Table 1, mitragynine series, hMOR G protein BRET, 95% confidence limits in brackets
[8] = Table 1, mitragynine series, hMOR G protein BRET, normalized to DAMGO Emax = 100%
[9] = Table 3, 7-OH series, hMOR G protein BRET, normalized to DAMGO Emax = 100%
[10] = Table 2, MG-EG series, hMOR G protein BRET, normalized to DAMGO Emax = 100%

Compound | Emax [1, 8] | Emax [1, 9] | Agonist activity at hMOR (in words) ([1]; hMOR G protein BRET) | Ki [3] | Ki [4] | Ki [5] | Emax [6] | Emax [1, 10] | other results
CC[C@@H]1CN2CCc3c([nH]c4cc(F)cc(OC)c34)[C@@H]2C[C@@H]1/C(=C\OC)C(=O)OC [Compound 13, 11-fluoro-MG] | 49% | – | – | – | – | – | – | – | EC50 [1, 7]: 81.5 nM
CC[C@@H]1CN2CCc3c([nH]c4cccc(OC)c34)[C@@H]2C[C@@H]1/C(=C\OC)C(=O)OC [Compound 12, mitragynine, reference compound] | 26.5% | – | – | – | – | – | – | – | Agonist activity at hMOR (in words), previously shown [2]: partial agonist
CC[C@@H]1CN2CC[C@@]3(O)C(=Nc4cc(Br)cc(OC)c43)[C@@H]2C[C@@H]1/C(=C\OC)C(=O)OC [Compound 26, 11-bromo-7-OH] | – | < 20% | agonist activity was abolished | 32.4 ± 1.42 nM | 81.1 ± 7.11 nM | 57.7 ± 6.66 nM | < 20% | – | Agonist activity at mMOR (in words) [6]: not agonists
CC[C@@H]1CN2CCc3c([nH]c4cc(Br)cc(OC)c34)[C@@H]2C[C@@H]1/C(=C\OC)C(=O)OC [Compound 15, 11-bromo-MG] | < 20% | – | no/negligible agonist activity | – | – | – | – | – | –
CC[C@@H]1CN2CC[C@@]34OCCO[C@@]3(Nc3cc(Cl)cc(OC)c34)[C@@H]2C[C@@H]1/C(=C\OC)C(=O)OC [Compound 3, C11-Chloromitragynine-ethylene glycol adduct] | – | – | negligible agonist activity | – | – | – | – | < 20% | –
CC[C@@H]1CN2CCc3c([nH]c4cc(Cl)cc(OC)c34)[C@@H]2CC1/C(=C\OC)C(=O)OC (stereo partly shown) [Compound 14, 11-Chloromitragynine] | 33.4% | – | – | – | – | – | – | – | EC50 [1, 7]: 327 nM
CC[C@@H]1CN2CC[C@@]34OCCO[C@@]3(Nc3cc(Br)cc(OC)c34)[C@@H]2C[C@@H]1/C(=C\OC)C(=O)OC [Compound 4, 11-bromo-MG-EG] | – | – | negligible agonist activity | – | – | – | – | < 20% | –
CC[C@@H]1CN2CC[C@@]34OCCO[C@@]3(Nc3cc(F)cc(OC)c34)[C@@H]2C[C@@H]1/C(=C\OC)C(=O)OC [Compound 2, 11-Fluoromitragynine-ethylene glycol adduct] | – | – | negligible agonist activity | – | – | – | – | < 20% | –
CC[C@@H]1CN2CC[C@@]3(O)C(=Nc4cc(F)cc(OC)c43)[C@@H]2C[C@@H]1/C(=C\OC)C(=O)OC [Compound 24, 11-Fluoro-7-hydroxymitragynine] | – | 47% | – | 13.7 ± 1.01 nM | 21 ± 3.26 nM | 35.8 ± 2.01 nM | 63.8% | – | EC50 ([1]; EC50 (nM), Table 3, 7-OH series, hMOR G protein BRET, 95% confidence limits in brackets): 3.98 nM; Gain in affinity at mMOR relative to parent 7-OH, 23 ([3]; ratio of affinity vs 7-OH (23)): approximately 2 fold; Affinity at KOR relative to parent compound 23 ([4]; ratio of affinity vs 7-OH (23)): six times greater; Affinity for DOR relative to 7-OH, 23 ([5]; ratio of affinity vs 7-OH (23)): > 2 fold; EC50 ([6]; Table 5, 7-OH series, mMOR CAMYEL cAMP assay, 95% confidence limits in brackets, read-out: EC50): 15.1 nM
CC[C@@H]1CN2CC[C@@]3(O)C(=Nc4cc(Cl)cc(OC)c43)[C@@H]2C[C@@H]1/C(=C\OC)C(=O)OC [Compound 25, 11-chloro-7-OH] | – | < 20% | agonist activity was abolished | 27.1 ± 1.12 nM | 30.6 ± 11.3 nM | 47.2 ± 2.36 nM | < 20% | – | Agonist activity at mMOR (in words) [6]: not agonists
CC[C@@H]1CN2CC[C@@]34OCCO[C@@]3(Nc3cccc(OC)c34)[C@@H]2C[C@@H]1/C(=C\OC)C(=O)OC [Compound 1, mitragynine-ethylene glycol adduct, reference compound] | – | – | partial agonist | – | – | – | – | 56.2% | EC50 ([1]; EC50 (nM), Table 2, MG-EG series, hMOR G protein BRET, 95% confidence limits in brackets): 14.8 nM
CC[C@@H]1CN2CC[C@@]34OCCO[C@@]3(Nc3cc(O)cc(OC)c34)[C@@H]2C[C@@H]1/C(=C\OC)C(=O)OC [Compound 6, 11-hydroxy-MG-EG] | – | – | – | – | – | – | – | – | EC50 [1]: 11.3 nM; Emax [1]: 67.4%
CC[C@@H]1CN2CC[C@@]3(O)C(=Nc4cccc(OC)c43)[C@@H]2C[C@@H]1/C(=C\OC)C(=O)OC [Compound 23, 7-hydroxymitragynine, reference compound] | – | 88% | – | 21.4 ± 0.81 nM | 119 ± 2.14 nM | 88.5 ± 9.86 nM | 92.4% | – | EC50 [6]: 13 nM
